One may read the IC50 as the concentration that inhibits the measured activity by half.

The target of assay [1] is T1, human TRPV1 (Homo sapiens, UniProt Q8NER1).
T1 construct: using primers designed surrounding the complete hTRPV1 open reading frame; expressed in transfected cells; host or cells: CHO-K1 cells stably transfected with pcDNA3.1(-)-hVR1 plasmid
Put plainly: pH-based assay, Protocol 2 (TRPV1/CHO cells, Fura-2 AM, FDSS-3000, pH 5.0-5.1). In kind it is cell-based. The settings on record: H2SO4 agonist, mean ± SEM, number of trials in parentheses, read-out: TRPV1 IC50 Potency, Human pH CHO (hpH-CHO). The source says: For Protocol 2, a Chinese Hamster Ovary cell line (CHO) that has been engineered to constitutively express human recombinant TRPV1 was used (TRPV1/CHO cells). The TRPV1/CHO cell line was generated as described below.
The resulting PCR products were purified from agarose gels using Gel Band Purification Kit (GE Healthcare Bioscience) and were subcloned into pCR-Blunt vector (Invitrogen). The cloned cDNA was fully sequenced using a fluorescent dye-terminator reagent (BigDye Terminator ver3.1 Cycle Sequencing Kit, Applied Biosystems) and ABI Prism 3100 genetic analyzer (Applied Biosystems). The pCR-Blunt vector containing the hTRPV1 cDNA was subjected to restriction digestion with EcoRI. The restriction fragment was subcloned into expression vector pcDNA3.1 (−) (Invitrogen) and named pcDNA3.1 (−)-hVR1 plasmid. The sequence of the cDNA encoding TRPV1 is available at GenBank accession number AJ277028.
CHO-K1 cells were maintained in growth medium consisting of α-MEM, 10% FBS (Hyclone), and 100 IU/mL of penicillin-100 μg/mL of streptomycin mixed solution (Nacalai Tesque, Japan) at 37° C. in an environment of humidified 95% air and 5% CO2. The cells were transfected with the pcDNA3.1 (−)-hVR1 plasmid using FuGENE6 (Roche) according to the manufacturer's protocol. 24 hr after transfection, neomycin-resistant cells were selected using 1 mg/mL G418 (Nacalai Tesque). After 2 weeks, individual colonies were picked, expanded, and screened for the expression of hTRPV1 in the capsaicin-induced Ca^2+ influx assay (see below) with a FLIPR (Molecular Devices). A clone with the largest Ca^2+ response to capsaicin was selected and re-cloned by the same procedure. The cells expressing hTRPV1 were cultured in the growth medium supplemented with 1 mg/mL G418.
TRPV1/CHO cells were seeded in the 96-well clear-bottom black-wall plate (Nunc) at densities of 1-2×10^4 cells/well and grown in 100 μL of culture medium (alpha-MEM supplemented with 10% FBS, 20 mM HEPES, 1 mg/mL geneticin and 1% antibiotic-antimycotic mixed stock solution) for 1-2 days before the experiment.
Different agonist solutions with sulfuric acid concentrations of from 15 mM to 18 mM (see FIG. 1) were prepared by diluting 1M sulfuric acid with measuring buffer. The different sulfuric acid concentrations in the agonist solutions were selected such that a 1:4 dilution would result in a final sulfuric acid concentration of between 3.0 mM to 3.6 mM, respectively, as indicated in FIG. 1.
The cells were stimulated using 3.0 mM (well number B1-6), 3.1 mM (C1-6), 3.2 mM (D1-6), 3.3 mM (E1-6), 3.4 mM (F1-6), 3.5 mM (G1-6), or 3.6 mM (H1-6) H2SO4 or pH 7.2 measuring buffer without H2SO4 (A1-6) (FIG. 2).
(1) Culture medium was removed using an 8-channel-pipette (Rainin, USA) from the 96-well plate and the wells were refilled with 100 μL of loading buffer (20 mM HEPES, 115 mM NaCl, 5.4 mM KCl, 0.8 mM MgCl2, 1.8 mM CaCl2, 13.8 mM D-glucose, 2.5 mM probenecid, pH 7.4) containing 5 μM Fura-2 AM (Dojin, Japan).
(2) The 96-well plate was incubated at 37° C. for 45 min.
(3) The loading buffer was removed from each well. The cells were subsequently washed twice with 150 μL of measuring buffer (20 mM HEPES, 115 mM NaCl, 5.4 mM KCl, 0.8 mM MgCl2, 5.0 mM CaCl2, 13.8 mM D-glucose, 0.1% BSA, pH 7.4) (no probenecid). The wells were then refilled with 80 μL of measuring buffer.
(4) After an incubation at 4° C. for 15 min, the 96-well plate was transferred to FDSS-3000 (Hamamatsu Photonics, Japan).
(5) The Fura-2 fluorescent intensity was monitored at a wavelength of 340 nm and at 380 nm, respectively, at a rate of 0.5 Hz for a total of 240 seconds.

Assay [2] concerns the target T1, human TRPV1. Put plainly: Capsaicin-based assay, Protocol 2 (TRPV1/CHO cells, Fluo-4, FLIPR). In kind it is cell-based. The settings on record: capsaicin 100 nM final, mean ± SEM, number of trials in parentheses, read-out: TRPV1 IC50 Potency, Human Capsaicin CHO (hCAP-CHO). The source says:
The TRPV1/CHO cell line was generated as described below. […] The resulting PCR products were purified from agarose gels using Gel Band Purification Kit (GE Healthcare Bioscience) and were subcloned into pCR-Blunt vector (Invitrogen). The cloned cDNA was fully sequenced using a fluorescent dye-terminator reagent (BigDye Terminator ver3.1 Cycle Sequencing Kit, Applied Biosystems) and ABI Prism 3100 genetic analyzer (Applied Biosystems). The pCR-Blunt vector containing the hTRPV1 cDNA was subjected to restriction digestion with EcoRI. The restriction fragment was subcloned into expression vector pcDNA3.1 (-) (Invitrogen) and named pcDNA3.1 (-)-hVR1 plasmid. The sequence of the cDNA encoding TRPV1 is available at GenBank accession number AJ277028. […] The cells were transfected with the pcDNA3.1 (-)-hVR1 plasmid using FuGENE6 (Roche) according to the manufacturer's protocol. 24 hr after transfection, neomycin-resistant cells were selected using 1 mg/mL G418 (Nacalai Tesque). […] The cells expressing hTRPV1 were cultured in the growth medium supplemented with 1 mg/mL G418. […] Subsequently, the cells were loaded by incubation in 0.1 mL of wash buffer containing Fluo-4 at 3 μM final concentration. After 1 hour, the cells were washed twice with 0.2 mL wash buffer and resuspended in 0.1 mL wash buffer. The plates were then transferred to a Fluorescence Imaging Plate Reader (Molecular Devices). Fluorescence intensity was monitored for 15 seconds to establish a baseline. […] The final concentration of the compound was adjusted to range from 100 μM to 1.5625 μM. […] Data were collected over the entire time course and analyzed using Excel and the curve-fitting formula GraphPad Prism.

T1 sequence (Q8NER1 whole entry): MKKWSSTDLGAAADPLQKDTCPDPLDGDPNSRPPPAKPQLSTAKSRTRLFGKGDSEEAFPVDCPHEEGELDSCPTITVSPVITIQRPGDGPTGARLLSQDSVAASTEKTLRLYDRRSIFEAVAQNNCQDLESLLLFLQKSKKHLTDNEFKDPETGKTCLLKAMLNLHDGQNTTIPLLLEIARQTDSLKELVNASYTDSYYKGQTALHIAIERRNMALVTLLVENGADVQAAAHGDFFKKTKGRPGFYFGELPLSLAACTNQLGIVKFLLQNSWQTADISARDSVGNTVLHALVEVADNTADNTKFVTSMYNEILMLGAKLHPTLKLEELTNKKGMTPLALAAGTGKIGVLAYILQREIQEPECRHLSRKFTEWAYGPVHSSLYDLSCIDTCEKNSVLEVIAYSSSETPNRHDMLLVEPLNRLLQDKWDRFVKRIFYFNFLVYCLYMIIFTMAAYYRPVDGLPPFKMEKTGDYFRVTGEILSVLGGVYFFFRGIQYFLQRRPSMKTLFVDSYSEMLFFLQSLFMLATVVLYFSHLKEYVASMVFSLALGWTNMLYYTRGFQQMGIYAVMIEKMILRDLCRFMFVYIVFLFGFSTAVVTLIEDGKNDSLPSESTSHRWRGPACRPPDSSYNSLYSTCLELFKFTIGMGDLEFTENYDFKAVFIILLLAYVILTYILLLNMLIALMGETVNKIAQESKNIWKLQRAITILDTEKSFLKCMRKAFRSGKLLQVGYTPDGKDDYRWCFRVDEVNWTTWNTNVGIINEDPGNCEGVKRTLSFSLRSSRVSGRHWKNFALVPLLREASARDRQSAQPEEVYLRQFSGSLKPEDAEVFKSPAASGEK

With `O=C(Nc1ccc(C(F)(F)F)c(Cl)c1)N1CC=C(c2ncc(CO)cc2Cl)CC1` [Compound S2], the IC50 in assay [1] was 31.9 ± 2.5 nM; in assay [2], 205 ± 35.4 nM.

As for `O=C(Nc1nc2ccc(F)cc2s1)N1CCN(c2ncc([C@H](O)CO)cc2Cl)CC1` [Compound V6, (S)-4-(3-chloro-5-(1,2-dihydroxyethyl)pyridin-2-yl)-N-(6-fluorobenzo[d]thiazol-2-yl)piperazine-1-carboxamide], the IC50 was 6.2 nM in assay [1] and 16 ± 1.6 nM in assay [2].

For the compound `O=C(Nc1ccc(C(F)(F)F)c(F)c1)N1CC=C(c2ncc([C@@H](O)CO)cc2Cl)CC1` [Compound W5], the IC50 was determined as 71.2 ± 10.5 nM in assay [1] and 423 ± 123 nM in assay [2].

For `O=C(Nc1ccc(C(F)(F)F)cc1)N1CCC(F)(c2ncc([C@@H](O)CO)cc2Cl)CC1` [Compound B1], the IC50 in assay [1] was 7.4 ± 0.3 nM; in assay [2], 7.81 ± 1.2 nM.

For the compound `O=C(Nc1nc2ccc(Cl)cc2s1)N1CC=C(c2ncc([C@@H](O)CO)cc2Cl)CC1` [Compound P3], the IC50 stood at 28.5 nM in assay [1] and 183 ± 38.1 nM in assay [2].

As for `O=C(Nc1ccc(Br)c(C(F)(F)F)c1)N1CCC(F)(c2ncc([C@H](O)CO)cc2Cl)CC1` [Compound B5], the IC50 in assay [1] worked out at 15 ± 3 nM; in assay [2], 106 ± 21 nM.

On to `O=C(Nc1ccc(Cl)c(C(F)(F)F)c1)N1CCC(F)(c2ncc([C@@H](O)CO)cc2F)CC1` [Compound G5], for which the IC50 was 108 nM in assay [1] and 400 ± 10.6 nM in assay [2].

`O=C(Nc1ccc(S(=O)(=O)C(F)(F)F)cc1)N1CC=C(c2ncc([C@H](O)CO)cc2Cl)CC1` [Compound Q1]: the IC50 amounted to 8.1 ± 0.7 nM in assay [1] and 51 ± 16.4 nM in assay [2].

Regarding `O=C(Nc1ccc(C(F)(F)F)cn1)N1CC=C(c2ncc(CO)cc2Cl)CC1` [Compound Z2], the IC50 in assay [1] is 248 ± 45.3 nM; in assay [2], 401 ± 122 nM.

On to `O=C(Nc1ccc(OC(F)(F)F)cc1)N1CCN(c2ncc([C@H](O)CO)cc2Cl)CC1` [Compound L6, (S)-4-(3-chloro-5-(1,2-dihydroxyethyl)pyridin-2-yl)-N-(4-(trifluoromethoxy)phenyl)piperazine-1-carboxamide], for which the IC50 in assay [1] turned out to be 5.8 nM; in assay [2], 14.2 ± 1.4 nM.

With `O=C(Nc1ccc(Cl)c(C(F)(F)F)c1)N1CCC(F)(c2ncc([C@H](O)CO)cc2Cl)CC1` [Compound T1], the IC50 in assay [1] was determined as 29.7 ± 2.3 nM; in assay [2], 60.3 ± 19 nM.

Consider `CN(C)c1ccc(NC(=O)N2CC=C(c3ncc(CO)cc3Cl)CC2)cc1C(F)(F)F` [Compound X1], for which the IC50 in assay [1] worked out at 18.8 ± 1.6 nM; in assay [2], 74.4 ± 11.5 nM.

Consider `O=C(Nc1ccc(Cl)c(C(F)(F)F)c1)N1CCC(F)(c2ncc([C@H](O)CO)cc2F)CC1` [Compound E5], for which the IC50 in assay [1] amounted to 33.8 nM; in assay [2], 133 ± 28.5 nM.

For the compound `CC(C)(C)c1ccc(NC(=O)N2CC=C(c3ncc([C@H](O)CO)cc3F)CC2)cc1` [Compound D1], the IC50 came to 0.9 nM in assay [1] and 16.5 ± 4.1 nM in assay [2].

For `O=C(Nc1ccc(C(F)(F)F)cn1)N1CCC(F)(c2ncccc2Cl)CC1` [Compound 204], the IC50 in assay [1] was 154 nM; in assay [2], 167 nM.

For the compound `CC(C)(C)c1ccc(NC(=O)N2CCN(c3ncc([C@H](O)CO)cc3Cl)CC2)cc1` [Compound K6, (S)—N-(4-tert-butylphenyl)-4-(3-chloro-5-(1,2-dihydroxyethyl)pyridin-2-yl)piperazine-1-carboxamide], the IC50 in assay [1] came to 0.8 ± 0.1 nM; in assay [2], 9.8 ± 2.3 nM.

Turning to `O=C(Nc1ccc(C(F)(F)F)cc1)N1CC=C(c2ncc(C(F)(F)CO)cc2Cl)CC1` [Compound F4, 4-(3-chloro-5-(1,1-difluoro-2-hydroxyethyl)pyridin-2-yl)-N-(4-(trifluoromethyl)phenyl)-5,6-dihydropyridine-1(2H)-carboxamide], the results for the IC50 in assay [1] and in assay [2] were 32.5 ± 2.4 nM and 86.7 ± 18.9 nM, respectively.

In the case of `O=C(Nc1ccc(C(F)(F)F)cn1)N1CCC(F)(c2ncc([C@@H](O)CO)cc2F)CC1` [Compound Y5], the IC50 in assay [1] is 108 ± 7.7 nM; in assay [2], 196 ± 37.7 nM.

Take `CC(C)(O)c1cnc(C2=CCN(C(=O)Nc3nc4ccc(Cl)cc4s3)CC2)c(Cl)c1` [Compound B3]: the IC50 in assay [1] was 106 ± 11.4 nM; in assay [2], 537 ± 62 nM.

Turning to `O=C(Nc1ccc(C(F)(F)F)cc1)N1CCN(c2ncc([C@H](O)CO)cc2Cl)CC1` [Compound M6, (S)-4-(3-chloro-5-(1,2-dihydroxyethyl)pyridin-2-yl)-N-(4-(trifluoromethyl)phenyl)piperazine-1-carboxamide], the IC50 in assay [1] stood at 3.5 ± 1 nM; in assay [2], 7 ± 1 nM.

In the case of `O=C(Nc1ccc(C(F)(F)F)c(Cl)c1)N1CCC(F)(c2ncc([C@@H](O)CO)cc2Cl)CC1` [Compound T3], the IC50 in assay [1] stood at 12.9 nM; in assay [2], 23.8 ± 6.8 nM.

Consider `O=C(Nc1ccc(C(F)(F)F)cc1)N1CC=C(c2ncc([C@@H](O)CO)cc2Cl)CC1` [Compound L3], for which the IC50 in assay [1] was 38.3 ± 4 nM; in assay [2] it was 37.1 ± 14.8 nM.

On to `O=C(Nc1ccc(Cl)c(C(F)(F)F)c1)N1CC=C(c2ncc([C@H](O)CO)cc2F)CC1` [Compound K2], for which the IC50 turned out to be 47.2 ± 6.7 nM in assay [1] and 141 ± 41.9 nM in assay [2].

Take `O=C(Nc1ccc(OC(F)(F)F)c(Br)c1)N1CC=C(c2ncc(CO)cc2Cl)CC1` [Compound R2]: the IC50 in assay [1] was determined as 49.6 ± 3.4 nM; in assay [2] it was 200 ± 26.8 nM.

For the compound `O=C(Nc1ccc(C(F)(F)F)c(Cl)c1)N1CC=C(c2ncc([C@@H](O)CO)cc2Cl)CC1` [Compound M3], the IC50 in assay [1] came to 30 ± 2.1 nM; in assay [2] it was 187 ± 43.7 nM.

For the compound `CC(C)(C)c1ccc(NC(=O)N2CC=C(c3ncc([C@H](O)CO)cc3Cl)CC2)cc1` [Compound I1, (S)-3-Chloro-5-(1,2-dihydroxy-ethyl)-3′,6′-dihydro-2′H-[2,4′]bipyridinyl-1′-carboxylic acid (4-tert-butyl-phenyl)amide], the IC50 came out at 1.1 ± 0.2 nM in assay [1] and 33.8 ± 9.1 nM in assay [2].
